{"source": "ChEMBL document CHEMBL1201862", "about": "“PubChem BioAssay data set” (2004)", "experiment_in_all_cases": "NCI anticancer screen, dose series, 48 h", "key": {"[1]": {"test_system": "SW-620"}, "[2]": {"test_system": "SN12C"}, "[3]": {"test_system": "HCT-15"}, "[4]": {"test_system": "HCC 2998"}, "[5]": {"test_system": "SK-MEL-5"}, "[6]": {"test_system": "SF-539"}, "[7]": {"test_system": "HCT-116"}, "[8]": {"test_system": "M14"}, "[9]": {"test_system": "SNB-19"}, "[10]": {"test_system": "RPMI-8226"}, "[11]": {"test_system": "OVCAR-4"}, "[12]": {"test_system": "M19-MEL"}, "[13]": {"test_system": "786-0"}, "[14]": {"test_system": "UACC-62"}, "[15]": {"test_system": "U-251"}, "[16]": {"test_system": "MDA-N"}, "[17]": {"test_system": "MCF7"}, "[18]": {"test_system": "MDA-MB-231"}, "[19]": {"test_system": "MDA-MB-435"}}, "note": "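The compound was tested at five concentrations on cells cultured in 96-well plates, with a 48-hour exposure period. Here, GI50 denotes the concentration required for 50% inhibition of growth.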 Calls of active or inactive are those of the source. Rule as the data show it: active = GI50 up to about 1.1 µM and inactive = higher.", "data": [{"smiles": "Nc1ccc2nc(Nc3ccc(F)cc3)cnc2c1", "values": [{"measurement": "GI50", "setting": "[1]", "value": "> 100 µM (inactive)"}, {"measurement": "GI50", "setting": "[2]", "value": "> 100 µM (inactive)"}, {"measurement": "GI50", "setting": "[3]", "value": "> 100", "unit": "µM"}, {"measurement": "GI50", "setting": "[4]", "value": "> 100 µM (inactive)"}, {"measurement": "GI50", "setting": "[5]", "value": "> 100 µM (inactive)"}, {"measurement": "GI50", "setting": "[6]", "value": "> 100 µM (inactive)"}, {"measurement": "GI50", "setting": "[7]", "value": "> 100 µM (inactive)"}, {"measurement": "GI50", "setting": "[8]", "value": "> 100 µM (inactive)"}, {"measurement": "GI50", "setting": "[9]", "value": "> 100 µM (inactive)"}, {"measurement": "GI50", "setting": "[10]", "value": "61.7 µM (inactive)"}, {"measurement": "GI50", "setting": "[11]", "value": "> 100 µM (inactive)"}, {"measurement": "GI50", "setting": "[12]", "value": "> 100 µM (inactive)"}, {"measurement": "GI50", "setting": "[13]", "value": "> 100 µM (inactive)"}]}, {"smiles": "CCn1c(C)nc([N+](=O)[O-])c1Sc1ncc[nH]1", "values": [{"measurement": "GI50", "setting": "[1]", "value": "48.2 µM (inactive)"}, {"measurement": "GI50", "setting": "[2]", "value": "37 µM (inactive)"}, {"measurement": "GI50", "setting": "[4]", "value": "> 100 µM (inactive)"}, {"measurement": "GI50", "setting": "[14]", "value": "28.5 µM (inactive)"}, {"measurement": "GI50", "setting": "[5]", "value": "48.4 µM (inactive)"}, {"measurement": "GI50", "setting": "[6]", "value": "52.6 µM (inactive)"}, {"measurement": "GI50", "setting": "[7]", "value": "43.2 µM (inactive)"}, {"measurement": "GI50", "setting": "[8]", "value": "32.4 µM (inactive)"}, {"measurement": "GI50", "setting": "[9]", "value": "> 100 µM (inactive)"}, {"measurement": "GI50", "setting": "[10]", "value": "21.1 µM (inactive)"}, {"measurement": "GI50", "setting": "[11]", "value": "64.4 µM (inactive)"}, {"measurement": "GI50", "setting": "[12]", "value": "36.8 µM (inactive)"}, {"measurement": "GI50", "setting": "[13]", "value": "> 100 µM (inactive)"}, {"measurement": "GI50", "setting": "[15]", "value": "44 µM (inactive)"}]}, {"smiles": "N#Cc1ccc(Cc2ccccn2)cc1Cl", "values": [{"measurement": "GI50", "setting": "[1]", "value": "> 100 µM (inactive)"}, {"measurement": "GI50", "setting": "[2]", "value": "> 100 µM (inactive)"}, {"measurement": "GI50", "setting": "[14]", "value": "> 100 µM (inactive)"}, {"measurement": "GI50", "setting": "[5]", "value": "> 100 µM (inactive)"}, {"measurement": "GI50", "setting": "[6]", "value": "> 100 µM (inactive)"}, {"measurement": "GI50", "setting": "[9]", "value": "> 100 µM (inactive)"}, {"measurement": "GI50", "setting": "[11]", "value": "> 100 µM (inactive)"}, {"measurement": "GI50", "setting": "[12]", "value": "> 100 µM (inactive)"}, {"measurement": "GI50", "setting": "[13]", "value": "> 100 µM (inactive)"}, {"measurement": "GI50", "setting": "[15]", "value": "> 100 µM (inactive)"}]}, {"smiles": "Cc1cc([N+](=O)[O-])c(C)c2c1[nH]c1ccc(O)cc12", "values": [{"measurement": "GI50", "setting": "[1]", "value": "63.1 µM (inactive)"}, {"measurement": "GI50", "setting": "[2]", "value": "> 100 µM (inactive)"}, {"measurement": "GI50", "setting": "[3]", "value": 50, "unit": "µM"}, {"measurement": "GI50", "setting": "[4]", "value": "> 100 µM (inactive)"}, {"measurement": "GI50", "setting": "[5]", "value": "> 100 µM (inactive)"}, {"measurement": "GI50", "setting": "[6]", "value": "> 100 µM (inactive)"}, {"measurement": "GI50", "setting": "[7]", "value": "> 100 µM (inactive)"}, {"measurement": "GI50", "setting": "[8]", "value": "> 100 µM (inactive)"}, {"measurement": "GI50", "setting": "[9]", "value": "> 100 µM (inactive)"}, {"measurement": "GI50", "setting": "[10]", "value": "11.1 µM (inactive)"}, {"measurement": "GI50", "setting": "[11]", "value": "> 100 µM (inactive)"}, {"measurement": "GI50", "setting": "[12]", "value": "> 100 µM (inactive)"}, {"measurement": "GI50", "setting": "[13]", "value": "39.4 µM (inactive)"}]}, {"smiles": "CC1=CCC23C(C1)OC(Br)(C=CC2(C)O)C3(C)C", "note": "(centres undefined)", "values": [{"measurement": "GI50", "setting": "[1]", "value": "> 100 µM (inactive)"}, {"measurement": "GI50", "setting": "[2]", "value": "> 100 µM (inactive)"}, {"measurement": "GI50", "setting": "[4]", "value": "> 100 µM (inactive)"}, {"measurement": "GI50", "setting": "[14]", "value": "> 100 µM (inactive)"}, {"measurement": "GI50", "setting": "[5]", "value": "> 100 µM (inactive)"}, {"measurement": "GI50", "setting": "[6]", "value": "> 100 µM (inactive)"}, {"measurement": "GI50", "setting": "[7]", "value": "> 100 µM (inactive)"}, {"measurement": "GI50", "setting": "[11]", "value": "> 100 µM (inactive)"}, {"measurement": "GI50", "setting": "[12]", "value": "> 100 µM (inactive)"}, {"measurement": "GI50", "setting": "[13]", "value": "> 100 µM (inactive)"}]}, {"smiles": "CC(C)C(OC(=O)c1ccc(NCC2=CC(=O)C=CC2=O)cc1)C(C)C", "values": [{"measurement": "GI50", "setting": "[1]", "value": "6.76 µM (inactive)"}, {"measurement": "GI50", "setting": "[2]", "value": "9.16 µM (inactive)"}, {"measurement": "GI50", "setting": "[3]", "value": 2.97, "unit": "µM"}, {"measurement": "GI50", "setting": "[4]", "value": "13.6 µM (inactive)"}, {"measurement": "GI50", "setting": "[16]", "value": "5.2 µM (inactive)"}, {"measurement": "GI50", "setting": "[14]", "value": "6.44 µM (inactive)"}, {"measurement": "GI50", "setting": "[5]", "value": "10.6 µM (inactive)"}, {"measurement": "GI50", "setting": "[6]", "value": "1.99 µM (inactive)"}, {"measurement": "GI50", "setting": "[7]", "value": "11.7 µM (inactive)"}, {"measurement": "GI50", "setting": "[17]", "value": "7.93 µM (inactive)"}, {"measurement": "GI50", "setting": "[8]", "value": "6.52 µM (inactive)"}, {"measurement": "GI50", "setting": "[9]", "value": "18.3 µM (inactive)"}, {"measurement": "GI50", "setting": "[18]", "value": "7.06 µM (inactive)"}, {"measurement": "GI50", "setting": "[10]", "value": "3.15 µM (inactive)"}, {"measurement": "GI50", "setting": "[11]", "value": "3.64 µM (inactive)"}, {"measurement": "GI50", "setting": "[13]", "value": "10.4 µM (inactive)"}, {"measurement": "GI50", "setting": "[19]", "value": "4.75 µM (inactive)"}, {"measurement": "GI50", "setting": "[15]", "value": "3.32 µM (inactive)"}]}, {"smiles": "CC(C)NC(=O)OCc1c(COC(=O)NC(C)C)c(-c2ccc[n+](COC(=O)C3CCCCC3)c2)n2c1CCC2", "values": [{"measurement": "GI50", "setting": "[1]", "value": "57.4 µM (inactive)"}, {"measurement": "GI50", "setting": "[2]", "value": "47.6 µM (inactive)"}, {"measurement": "GI50", "setting": "[3]", "value": 85.5, "unit": "µM"}, {"measurement": "GI50", "setting": "[4]", "value": "> 100 µM (inactive)"}, {"measurement": "GI50", "setting": "[16]", "value": "> 100 µM (inactive)"}, {"measurement": "GI50", "setting": "[14]", "value": "24.8 µM (inactive)"}, {"measurement": "GI50", "setting": "[5]", "value": "70.8 µM (inactive)"}, {"measurement": "GI50", "setting": "[6]", "value": "35.8 µM (inactive)"}, {"measurement": "GI50", "setting": "[7]", "value": "56.4 µM (inactive)"}, {"measurement": "GI50", "setting": "[17]", "value": "36.6 µM (inactive)"}, {"measurement": "GI50", "setting": "[8]", "value": "56 µM (inactive)"}, {"measurement": "GI50", "setting": "[9]", "value": "> 100 µM (inactive)"}, {"measurement": "GI50", "setting": "[18]", "value": "40.5 µM (inactive)"}, {"measurement": "GI50", "setting": "[10]", "value": "> 100 µM (inactive)"}, {"measurement": "GI50", "setting": "[11]", "value": "40.6 µM (inactive)"}, {"measurement": "GI50", "setting": "[13]", "value": "28.1 µM (inactive)"}, {"measurement": "GI50", "setting": "[19]", "value": "> 100 µM (inactive)"}, {"measurement": "GI50", "setting": "[15]", "value": "55.6 µM (inactive)"}]}, {"smiles": "COc1ccccc1N1C(=O)/C(=C\\c2cc(OC)c(OC)c(OC)c2)SC1c1ccccc1", "note": "(centres undefined)", "values": [{"measurement": "GI50", "setting": "[1]", "value": "53.1 µM (inactive)"}, {"measurement": "GI50", "setting": "[2]", "value": "91 µM (inactive)"}, {"measurement": "GI50", "setting": "[3]", "value": 44.7, "unit": "µM"}, {"measurement": "GI50", "setting": "[4]", "value": "> 100 µM (inactive)"}, {"measurement": "GI50", "setting": "[16]", "value": "15.2 µM (inactive)"}, {"measurement": "GI50", "setting": "[14]", "value": "36.1 µM (inactive)"}, {"measurement": "GI50", "setting": "[5]", "value": "14.2 µM (inactive)"}, {"measurement": "GI50", "setting": "[6]", "value": "99.3 µM (inactive)"}, {"measurement": "GI50", "setting": "[7]", "value": "18.5 µM (inactive)"}, {"measurement": "GI50", "setting": "[17]", "value": "18.2 µM (inactive)"}, {"measurement": "GI50", "setting": "[8]", "value": "16.5 µM (inactive)"}, {"measurement": "GI50", "setting": "[9]", "value": "27 µM (inactive)"}, {"measurement": "GI50", "setting": "[18]", "value": "44.8 µM (inactive)"}, {"measurement": "GI50", "setting": "[10]", "value": "3.11 µM (inactive)"}, {"measurement": "GI50", "setting": "[11]", "value": "49.4 µM (inactive)"}, {"measurement": "GI50", "setting": "[13]", "value": "97.5 µM (inactive)"}, {"measurement": "GI50", "setting": "[19]", "value": "14.9 µM (inactive)"}, {"measurement": "GI50", "setting": "[15]", "value": "24.4 µM (inactive)"}]}]}
